Experimental data reported in paper PMC7951571 (Heliyon, 2021).
Where two headings read alike, the source gives them in different places. Residues, ends and D or L forms follow the SMILES beside them. *: point of attachment. Cbz = O=C(OCc1ccccc1)*; CH2F = FC*

How the values were obtained:
[1] = target: rhACE2 - SARS-CoV-2 Spike (RBD) protein interaction (Homo sapiens, UniProt Q9BYF1); assay: biochemical; format: binding, human; SARS-CoV-2
[2] = target: recombinant human ACE2 (rhACE2) (Homo sapiens, UniProt Q9BYF1); assay: ACE2 inhibitor screening assay; format: biochemical
in vitro = details: African green monkey
Vero E6 cells = details: for Concentration at Maximum % Viability: monkey
SARS-CoV-2 USA_WA1/2020 = format: cell-based
[3] = system: ACE2-Spike interaction (SARS-CoV, SARS-CoV2, NL63S); details: cited from earlier work
[4] = Spike (RBD)-ACE2 Interaction Assay IC50_1
[5] = Spike (RBD)-ACE2 Interaction Assay IC50_2

Sequence of rhACE2 - SARS-CoV-2 Spike (RBD) protein interaction (Q9BYF1 18-740): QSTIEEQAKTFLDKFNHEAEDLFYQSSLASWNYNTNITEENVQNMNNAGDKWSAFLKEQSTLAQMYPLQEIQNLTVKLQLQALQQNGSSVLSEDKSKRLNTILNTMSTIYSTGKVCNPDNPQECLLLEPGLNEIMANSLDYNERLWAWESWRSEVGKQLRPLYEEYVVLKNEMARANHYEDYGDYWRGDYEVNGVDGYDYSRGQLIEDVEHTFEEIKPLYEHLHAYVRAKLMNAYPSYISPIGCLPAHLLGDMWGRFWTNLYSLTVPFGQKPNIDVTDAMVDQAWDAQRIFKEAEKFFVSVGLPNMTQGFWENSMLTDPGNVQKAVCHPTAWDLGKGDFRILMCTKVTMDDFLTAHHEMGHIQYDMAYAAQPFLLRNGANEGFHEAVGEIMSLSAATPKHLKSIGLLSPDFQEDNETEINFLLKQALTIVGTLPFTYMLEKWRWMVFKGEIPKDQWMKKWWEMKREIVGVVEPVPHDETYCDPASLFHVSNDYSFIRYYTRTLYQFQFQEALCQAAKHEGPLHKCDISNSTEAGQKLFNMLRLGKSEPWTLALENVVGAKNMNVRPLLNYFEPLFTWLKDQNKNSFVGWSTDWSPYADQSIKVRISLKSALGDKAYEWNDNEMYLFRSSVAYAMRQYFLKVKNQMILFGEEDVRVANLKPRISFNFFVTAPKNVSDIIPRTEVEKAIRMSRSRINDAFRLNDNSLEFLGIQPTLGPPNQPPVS
Sequence of recombinant human ACE2 (rhACE2) (Q9BYF1 18-805): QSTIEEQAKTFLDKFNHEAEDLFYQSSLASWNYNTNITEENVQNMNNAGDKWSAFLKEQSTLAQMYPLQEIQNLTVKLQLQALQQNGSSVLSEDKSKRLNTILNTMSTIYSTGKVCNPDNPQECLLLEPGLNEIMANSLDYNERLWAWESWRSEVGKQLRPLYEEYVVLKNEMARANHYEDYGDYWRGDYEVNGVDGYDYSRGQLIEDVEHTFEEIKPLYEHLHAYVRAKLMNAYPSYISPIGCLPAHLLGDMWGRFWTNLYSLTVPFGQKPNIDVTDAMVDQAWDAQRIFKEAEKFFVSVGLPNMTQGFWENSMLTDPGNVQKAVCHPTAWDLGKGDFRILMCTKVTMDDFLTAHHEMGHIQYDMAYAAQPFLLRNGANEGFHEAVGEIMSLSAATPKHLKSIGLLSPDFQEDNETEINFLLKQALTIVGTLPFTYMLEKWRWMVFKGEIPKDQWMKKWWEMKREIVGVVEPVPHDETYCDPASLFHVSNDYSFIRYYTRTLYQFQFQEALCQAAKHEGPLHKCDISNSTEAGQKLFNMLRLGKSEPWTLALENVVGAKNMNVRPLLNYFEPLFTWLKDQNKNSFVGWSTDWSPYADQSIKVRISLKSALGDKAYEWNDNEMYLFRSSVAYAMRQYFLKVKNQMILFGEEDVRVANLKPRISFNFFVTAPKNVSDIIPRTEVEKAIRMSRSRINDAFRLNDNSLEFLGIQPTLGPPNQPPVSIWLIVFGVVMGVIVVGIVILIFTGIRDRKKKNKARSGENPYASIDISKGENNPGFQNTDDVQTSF

## Oc1c(Br)cc(Cl)c2cccnc12 [CLBQ14, 7-bromo-5-chloro-8-hydroxyquinoline]
[1]; [4]
  IC50: 2.76 µM
[1]; [5]
  IC50: 3.06 µM
[2]
  IC50: 5.55 µM
In vitro
  CC50: > 30 µM
In vitro; Maximum Viability (%)
  viability: 108%
In vitro; Minimum Viability (%)
  viability: 53.5%
Vero E6 cells; African green monkey
  Concentration at Minimum % Viability: 15000 nM
Vero E6 cells
  Concentration at Maximum % Viability: 120 nM

## CCOC(=O)[C@H]1O[C@@H]1C(=O)N[C@@H](CC(C)C)C(=O)NCCC(C)C [E64d (Aloxistatin), Aloxistatin]
SARS-CoV-2 USA_WA1/2020
  Maximum Inhibition (%): 98.55%
In vitro
  CC50: > 30 µM
In vitro; Maximum Viability (%)
  viability: 113%
In vitro; Minimum Viability (%)
  viability: 100%
Vero E6 cells; African green monkey
  Concentration at Minimum % Viability: 15000 nM
Vero E6 cells
  Concentration at Maximum % Viability: 120 nM

## CC(C)C[C@H](N[C@@H](Cc1cncn1Cc1cc(Cl)cc(Cl)c1)C(=O)O)C(=O)O [MLN-4760, (S,S)-2-{1-Carboxy-2-[3-(3,5-dichloro-benzyl)-3H-imidazol-4-yl]-ethylamino}-4-methyl-pentanoic acid]
[3]
  disruption of ACE2-Spike interaction: does not disrupt ACE2-Spike interaction

## Oc1c(I)cc(Cl)c2cccnc12 [CLQ, 5-chloro-7-iodo-8-quinolinol]
[1]; [4]
  IC50: 0.85 µM
In vitro
  CC50: > 30 µM
In vitro; Maximum Viability (%)
  viability: 106%
In vitro; Minimum Viability (%)
  viability: 61.8%
Vero E6 cells; African green monkey
  Concentration at Minimum % Viability: 30000 nM
Vero E6 cells
  Concentration at Maximum % Viability: 230 nM

## CC(C)C[C@H](NC(=O)OCc1ccccc1)C(=O)N[C@@H](CC(C)C)C(=O)N[C@@H](Cc1ccc(O)cc1)C(=O)CF [Calpain Inhibitor IV] (Cbz-Leu-Leu-Tyr-CH2F)
SARS-CoV-2 USA_WA1/2020
  Maximum Inhibition (%): 95.75%
SARS-CoV-2 USA_WA1/2020; read-out: IC50, SARS-CoV-2 induced CPE
  IC50: 0.41 µM
Vero E6 cells
  CC50: > 7.17 µM
  Concentration at Minimum % Viability: 3590 nM
  Maximum Viability (%): 104.99%
  Minimum Viability (%): 98.29%
  Concentration at Maximum % Viability: 220 nM

## CCC(CC)COC(=O)[C@H](C)N[P@](=O)(OC[C@H]1O[C@@](C#N)(c2ccc3c(N)ncnn23)[C@H](O)[C@@H]1O)Oc1ccccc1 [Remdesivir]
SARS-CoV-2 USA_WA1/2020
  Maximum Inhibition (%): 100.27%
In vitro
  CC50: > 30 µM
In vitro; Maximum Viability (%)
  viability: 104%
In vitro; Minimum Viability (%)
  viability: 97.5%
Vero E6 cells; African green monkey
  Concentration at Minimum % Viability: 3750 nM
Vero E6 cells
  Concentration at Maximum % Viability: 60 nM

## [Cl-].[Cl-].[Zn+2] [ZnCl2, Zinc Chloride]
[2]; 100μM to 100nM
  exopeptidase activity of rhACE2 in the presence of ZnCl2 alone: increasing exopeptidase activity

## CCN(CCO)CCCC(C)Nc1ccnc2cc(Cl)ccc12 (stereo not shown) [Hydroxychloroquine]
SARS-CoV-2 USA_WA1/2020
  Maximum Inhibition (%): 93.14%
In vitro
  CC50: > 30 µM
In vitro; Maximum Viability (%)
  viability: 104%
In vitro; Minimum Viability (%)
  viability: 96.9%
Vero E6 cells; African green monkey
  Concentration at Minimum % Viability: 3750 nM
Vero E6 cells
  Concentration at Maximum % Viability: 60 nM

## CCN(CC)CCCC(C)Nc1ccnc2cc(Cl)ccc12 (stereo not shown) [Chloroquine]
SARS-CoV-2 USA_WA1/2020
  Maximum Inhibition (%): 111.08%
In vitro
  CC50: > 30 µM
In vitro; Maximum Viability (%)
  viability: 107%
In vitro; Minimum Viability (%)
  viability: 95.6%
Vero E6 cells; African green monkey
  Concentration at Minimum % Viability: 15000 nM
Vero E6 cells
  Concentration at Maximum % Viability: 60 nM

## Oc1c(Cl)cc(Cl)c2cccnc12 [CLCQ, 5,7-dichloro-8-hydroxyquinoline]
[1]; [4]
  IC50: 1.74 µM
[1]; [5]
  IC50: 1.91 µM
[2]
  IC50: < 10 µM
In vitro
  CC50: > 30 µM
In vitro; Maximum Viability (%)
  viability: 102%
In vitro; Minimum Viability (%)
  viability: 60.8%
Vero E6 cells; African green monkey
  Concentration at Minimum % Viability: 15000 nM
Vero E6 cells
  Concentration at Maximum % Viability: 60 nM
